{"source": "patent US20250376459A1", "about": "“CRYSTALLINE FORMS OF A TYK2 INHIBITOR AND USES THEREOF” (Alumis Inc., priority 2022, published 2025)", "format_in_all_cases": "physicochemical", "key": {"[1]": {"assay": "dynamic vapor sorption (DVS) analysis", "protocol": "Dynamic vapor sorption analysis (DVS) was performed on a DVS Intrinsic PLUS (SMS, UK). The sample was placed into a tared sample chamber and automatically weighed. The sample was dried at 40° C. until the dm/dt was less than 0.002% and cooled to 25° C. The instrument parameters were as follows: step time (min)=60 min; sample temperature=25 C; cycle=full cycle; adsorption (% RH)=0, 10, 20, 30, 40, 50, 60, 70, 80, 90; desorption (% RH)=80, 70, 60, 50, 40, 30, 20, 10, 0; saved data rate=5 sec; total flow rate=200 sccm; post experimental flow rate=200 sccm."}, "[2]": {"assay": "solubility in SGF, FeSSIF, FaSSIF and water"}, "[3]": {"assay": "solid form chemical and physical stability"}, "[4]": {"conditions": "about 0% to about 80% RH at 25° C."}, "[5]": {"conditions": "about 0% to about 90% RH at 25° C."}}, "note": "Where a name gives a salt, the structure may show the parent alone. Read-outs that look alike come from different tables or passages of the source.", "data": [{"molecule": "[2H]C([2H])([2H])CC(=O)c1cnc(NC(=O)C2CC2)cc1Nc1cccc(-c2ncn(C([2H])([2H])[2H])n2)c1OC", "note": "[Form 5-2, N-(4-((2-methoxy-3-(1-(methyl-d3)-1H-1,2,4-triazol-3-yl)phenyl)amino)-5-(propanoyl-3,3,3-d3)pyridin-2-yl) cyclopropanecarboxamide, sulfuric acid salt]", "values": [{"measurement": "DVS reversable total mass change", "setting": "[1]; [4]", "result": "about 0.9 wt. %"}, {"measurement": "DVS reversable total mass change", "setting": "[1]; [5]", "result": "about 1.4 wt. %"}, {"measurement": "form change after DVS analysis", "setting": "[1]", "result": "No form change"}]}, {"molecule": "[2H]C([2H])([2H])CC(=O)c1cnc(NC(=O)C2CC2)cc1Nc1cccc(-c2ncn(C([2H])([2H])[2H])n2)c1OC", "note": "[Form 1-1, N-(4-((2-methoxy-3-(1-(methyl-d3)-1H-1,2,4-triazol-3-yl)phenyl)amino)-5-(propanoyl-3,3,3-d3)pyridin-2-yl) cyclopropanecarboxamide, methanesulfonic acid salt]", "values": [{"measurement": "hygroscopicity", "setting": "[1]", "result": "only slightly hygroscopic"}, {"measurement": "DVS reversable total mass change", "setting": "[1]; [4]", "result": "about 0.6 wt. %"}, {"measurement": "DVS reversable total mass change", "setting": "[1]; [5]", "result": "about 1.3 wt. %"}, {"measurement": "form change after DVS analysis", "setting": "[1]", "result": "No form change"}, {"measurement": "salt dissociation in solubility media", "setting": "[2]; FaSSIF, FeSSIF and water", "result": "dissociate to the free base"}, {"measurement": "solubility", "setting": "[2]; FaSSIF, read-out: solubility in FaSSIF", "result": "1 to 2", "unit": "µg/mL"}, {"measurement": "solubility", "setting": "[2]; FeSSIF, read-out: solubility in FeSSIF", "result": "20 to 30", "unit": "µg/mL"}, {"measurement": "solubility", "setting": "[2]; SGF, simulated gastric fluid, read-out: solubility in SGF", "result": "> 4100", "unit": "µg/mL"}, {"measurement": "time chemically and physically stable in the solid form", "setting": "[3]; 40° C./75% RH", "result": "at least 10 days"}, {"measurement": "time chemically and physically stable in the solid form", "setting": "[3]; 60° C.", "result": "at least 10 days"}]}, {"molecule": "[2H]C([2H])([2H])CC(=O)c1cnc(NC(=O)C2CC2)cc1Nc1cccc(-c2ncn(C([2H])([2H])[2H])n2)c1OC", "note": "[Form 6, N-(4-((2-methoxy-3-(1-(methyl-d3)-1H-1,2,4-triazol-3-yl)phenyl)amino)-5-(propanoyl-3,3,3-d3)pyridin-2-yl) cyclopropanecarboxamide, p-toluenesulfonic acid salt]", "values": [{"measurement": "DVS reversable total mass change", "setting": "[1]; [4]", "result": "about 0.6 wt. %"}, {"measurement": "DVS reversable total mass change", "setting": "[1]; [5]", "result": "about 0.7 wt. %"}, {"measurement": "form change after DVS analysis", "setting": "[1]", "result": "No form change"}]}]}
